Reference: the NIST ThermoML archive (doi:10.1016/j.jct.2005.07.015)
± gives the expanded uncertainty stated by the source.

Conditions: Liquid, Closed cell (Static) method

SMILES: CCO [ethanol]
- vapor or sublimation pressure (298.15 K): 7.878 ± 0.023 kPa
- vapor or sublimation pressure (303.15 K): 10.47 ± 0.027 kPa
- vapor or sublimation pressure (308.15 K): 13.77 ± 0.034 kPa
- vapor or sublimation pressure (313.15 K): 17.91 ± 0.042 kPa
- vapor or sublimation pressure (318.15 K): 23.07 ± 0.052 kPa
- vapor or sublimation pressure (323.15 K): 29.46 ± 0.063 kPa
